Measured values: patent US8338482B2, “Modulating notch1 signaling pathway for treating neuroendocrine tumors” (Wisconsin Alumni Research Foundation, priority 2007, dated 2012)

Key:
[1] = system: BON cells; assay: Subcutaneous GI carcinoid xenograft study; type: in vivo, mice; conditions: 366 mg/kg daily i.p., 20 days
Procedure: Xenograft Studies BON cells (1×10^6) were suspended in Hanks' balanced salt solution (Invitrogen) and injected subcutaneously into the right flank of 12 male nude athymic NU/NU mice (Charles River Laboratories, Wilmington, Mass.) under anesthesia. After palpable tumors developed, the mice were divided into 2 groups of 6 animals. The control group received daily intraperitoneal (i.p.) injections of saline while the treatment group received daily i.p. injections of VPA (366 mg/kg) for 20 days. The length and width of tumors were measured with a vernier caliper every 4 days and tumor volumes were calculated using the formula, volume=width^2×length×0.52. At the end of the experiment the mice were sacrificed and the tumors were resected and frozen in liquid nitrogen. Whole tumor cell protein lysates were prepared for immunoblotting as previously described (Vaccaro A et al., In-vivo activation of Raf-1 inhibits tumor growth and development in a xenograft model of human medullary thyroid cancer. Anticancer Drugs 2006; 17:849-853). This experiment was performed in accordance with the protocols of the University of Wisconsin Medical School Animal Care and Use Committee.

[2] = system: H727 human lung carcinoid cancer cells; assay: MTT cell proliferation assay, pulmonary carcinoid cells; type: cell-based; conditions: VPA 0 to 4 mM, up to 6 days
Text: Cell Culture BON human GI carcinoid cancer cells, kindly provided by Drs. B. Mark Evers and Courtney M. Townsend, Jr. (University of Texas Medical Branch, Galveston, Tex., USA), and H727 human lung carcinoid cancer cells (American Type Tissue Collection, Manassas, Va., USA) were maintained as previously described (Sippel, R S et al., Raf-1 Activation Suppresses neuroendocrine marker and hormone levels in human gastrointestinal carcinoid cells. Am J Physiol Gastrointest Liver Physiol. 2003 August; 285(2):G245-54, Van Gompel J J et al., ZM336372, A Raf-1 Activator, Suppresses Growth and Neuroendocrine Hormone Levels in Carcinoid Tumor Cells. Mol Cancer Ther. 2005 June; 4(6):910-7)
Cell Proliferation Assay Carcinoid cancer cell proliferation was measured by the MTT (thiazolyl blue tetrazolium bromide; Sigma-Aldrich, St. Louis, Mo., USA) rapid calorimetric assay as previously described (Van Gompel J J et al., ZM336372, A Raf-1 Activator, Suppresses Growth and Neuroendocrine Hormone Levels in Carcinoid Tumor Cells. Mol Cancer Ther. 2005 June; 4(6):910-7). Briefly, cells were seeded in quadruplicate on 24-well plates and incubated for 24 hours to allow cell attachment. The cells were then treated with SBHA (Sigma-Aldrich) in concentrations of 0 to 50 μM and incubated for up to 6 days. The MTT assay was performed by replacing the standard medium with 250 μL of serum-free medium containing MTT (0.5 mg/mL) and incubated at 37° C. for 3 hours. […] The plates were then measured at 540 nm using a spectrophotometer (μQuant; Bio-Tek Instruments, Winooski, Vt., USA). […]
Cell Proliferation Assay Carcinoid tumor cell proliferation was measured by the MTT (methylthiazolyldiphenyl-tetrazolium bromide; Sigma-Aldrich, St. Louis, Mo.) rapid colorimetric assay as previously described (Van Gompel J J et al., ZM336372, A Raf-1 Activator, Suppresses Growth and Neuroendocrine Hormone Levels in Carcinoid Tumor Cells. Mol Cancer Ther 2005; 4:910-917). […] The plates were then measured at 540 nm using a spectrophotometer (μQuant; Bio-Tek Instruments, Winooski, Vt.).

Compound: CCCC(CCC)C(=O)O [VPA, 2-propylpentanoic acid]
- growth of the tumors [1]: almost static
- neurotoxicity [1]: no signs of neurotoxicity
- expression of ASCL1 in resected tumors ([1]; Western blot): decreased expression
- cell growth [2]: Statistically significant growth inhibition
